Legend:
[1] = test system: Normal human fibroblasts [CCD45SK (ATCC CRL 1506)]; assay: Response to TGF-β1: TIMP production by normal human fibroblasts (Test Examples 12-13); type: cell-based; settings: Test Example 12, 1 mM, 6 days, 3 ng/ml TGF-β1, 3 days
Protocol: (§1) Normal human fibroblasts [CCD45SK (ATCC CRL 1506) as prepared from the skin of a person] were suspended at a cell density of 1×10^5 cells/ml in the MEM medium, comprising 10% (V/V) FBS and 1% (V/V) non-essential amino acids (produced by Dai-Nippon Pharmaceutical Co.). The suspended cells were seeded into each well of a 12-well plate in an amount of 0.8 ml/well (corresponding to 8×10^4 cells/well) and incubated in a saturated aqueous vapor with 5% CO2 at 37° C.

[2] = test system: Japanese native, male house rabbits; settings: rabbit, in vivo
Protocol: Aqueous solutions of N-Methyl-L-Serine, Ethanolamine and N-Methylethanolamine that had been adjusted to have a pH of 7 with hydrochloric acid were used as test samples.
Using Japanese native, male house rabbits (body weight: about 3 kg), the test samples were tested according to the Draize method (see Appraisal of the Safety of Chemicals in Foods, Drugs and Cosmetics, p. 46, 1959, edited and published by the Deitorial Committee, Association of Food and Drug Officials of U.S.A.).
24 hours after the last application, the tested area of each rabbit was checked to score the erythema, edema, scab and rhagades, if any, formed in the area.
The erythema score, the edema score, the scab score, and the rhagades score as referred to in Table 17 were summed up to obtain the cumulative stimulation score.
Next, from the cumulative stimulation scores, obtained were the degrees of stimulation with N-Methyl-L-Serine, Ethanolamine and N-Methylethanolamine,according to the criteria shown in Table 18 below.

[3] = test system: Normal human fibroblasts [CCD45SK (ATCC CRL 1506)]; assay: Response to βFGF: procollagenase production by normal human fibroblasts CCD45SK (Test Examples 1-3); type: cell-based; settings: for activity at 1000 µM: Homo sapiens, Fibroblast, read-out: Response to βFGF Increment; for Procollagenase Production: mean ± SD, n = 3
Protocol: In the following tests, the procollagenase production was quantified in terms of the collagenase activity as obtained through activation with trypsin.
It is known that βFGF promotes procollagenase production. In the following tests, therefore, the βFGF activity increment as attained by the compound added was calculated from the procollagenase production, relative to the control using purified water in place of the test compound.
as §1, with “C. […]” for “C.”
After having been incubated for 24 hours, the culture medium was removed from the plate by suction, and the cells remained were washed twice with an MEM medium containing 0.6% (v/v) (as final concentration) of FBS. Then, the cells were fed with 0.8 ml of the solution prepared above added to the cells, which were incubated for 2 days.
After the 2 days incubation, the culture medium was removed from the plate by suction, and the cells were fed with 0.8 ml of the solution and were further incubated for 2 days. This operation was repeated once again. Thus, the cells were processed in the medium containing the cytokine activity enhancer for 6 days in total.
After the above-mentioned process, the culture medium was removed from the plate by suction, and the cells were fed with 0.8 ml of an MEM medium containing 3 ng/ml of βFGF (produced by Boehringer Manheim Co.) and 0.6% (V/V) FBS, and were incubated for 3 days to obtain a culture supernatant.
3.5 ml of 10 mM Tris-HCl buffer [adjusted at pH 7.8 at 4° C., containing 1 mM calcium chloride and 0.05% (W/V) Brij-35] was added to 500 μl of the thus-obtained culture supernatant, and applied to CM-Sepharose CL-6B (trade name, produced by Pharmacia Co., having a bed volume of 0.5 ml) as previously equilibrated with the same buffer.
Next, the inhibitor was removed through treatment with 0.5 ml of the same buffer as above but containing 125 mM sodium chloride (4 times in all, 2 ml of the buffer was used in total), and the procollagenase was recovered through treatment with 0.5 ml of the same buffer as above but containing 500 mM sodium chloride (4 times in all, 2 ml of the buffer was used in total). This was used as a test sample.
The test sample was suitably diluted with a buffer for measurement (mentioned above), 25 μl of the thus-diluted sample was mixed with 25 μl of the buffer, 20 μl of a trypsin solution (as prepared by adding trypsin, Type 12 (produced by Sigma Co.) to the buffer at a concentration of 1 mg/ml) was added thereto, and this was incubated at 35° C. for 5 minutes. Then, 30 μl of a soybean trypsin inhibitor solution (as prepared at a concentration of 3 mg/ml, using the buffer) was added to this to thereby inactivate the trypsin. The resulting solution is designated collagenase solution.
Using type I collagen as labeled with fluorescein isothiocyanate (hereinafter referred to as FITC) (this is an acetic acid solution of FITC-collagen having a concentration of 1 mg/ml; produced by Cosmo-Bio Co.), as a substrate solution, the collagenase activity (unit/ml) of the solution was measured according to the method of Nagai et al. (see Inflammations, Vol. 4, No. 2, p. 123, 1984). […] The procollagenase production (unit/ml of culture medium) was thus obtained and referred to as X1.

healthy panelists = settings: in vivo
Protocol: Aqueous solutions of N-methyl-L-serine, ethanolamine and N-methylethanolamine that had been adjusted to have a pH 7 with hydrochloric acid were used as test samples. These test samples were applied to 19 healthy panelists.
One hour and 24 hours after the removal of the patch, the condition of the skin of each panelist was observed.

male ICR mice = assay: Acute Toxicity Test; settings: oral, 5 g/kg of body weight; observed for 7 days
Protocol: Water, or an aqueous solution of N-Methyl-L-Serine (this was prepared to have a concentration of 5 g/kg of body weight of test animal, as a sample) was orally administered to male ICR mice (5 weeks-age; body weight, 24 to 28 g; 5 mice in one group), in an amount of […] of body weight.

With `CN[C@@H](CO)C(=O)O` [Example 1, N-methyl-L-serine] the activity at 1000 µM ([1]; Homo sapiens, Fibroblast, control = 100, read-out: Response to TGF-β1 Increment) was 240%, the “TIMP Production” value ([1]; mean ± SD, n = 3) was 240 ± 21 unit/ml and the “cumulative stimulation to the skin (in words)” value [2] was “low”. For the same compound, the “concentration dependence of increase in procollagenase production / response to βFGF” value ([3]; 0.01 to 10 mM) was “in a concentration-dependent manner”, the activity at 1000 µM ([3]; 144 h, Test Example 1, 1 mM, 6 days, 3 ng/ml βFGF, control (purified water) = 100) was 220% and the activity at 1000 µM ([3]; Test Example 2, 0.01 mM, control = 100) was 100%. For the same compound, the activity at 1000 µM ([3]; Test Example 2, 1.0 mM, control = 100) was 130%, the “Procollagenase Production” value ([3]; Test Example 1, 1 mM, 6 days, 3 ng/ml βFGF) was 15 ± 1.0 unit/ml and the “Procollagenase Production” value ([3]; Test Example 2, 0.01 mM) was 15 ± 3.3 unit/ml. For the same compound, the “Procollagenase Production” value ([3]; Test Example 2, 0.1 mM) was 17 ± 2.9 unit/ml, the “Procollagenase Production” value ([3]; Test Example 2, 0.3 mM) was 24 ± 3.5 unit/ml and the “Procollagenase Production” value ([3]; Test Example 2, 1.0 mM) was 19 ± 1.3 unit/ml. For the same compound, the “Procollagenase Production” value ([3]; Test Example 2, 3.0 mM) was 26 ± 1.5 unit/ml, the “Procollagenase Production” value ([3]; Test Example 2, 10 mM) was 32 ± 2.2 unit/ml and the panelists with erythema (healthy panelists) was “only one panelists had minor erythema”. For the same compound, the deaths of mice (male ICR mice) was “No mice of the test group to which N-Methyl-L-Serine was administered died”.

— patent US6008188A, “Cytokine potentiator and pharmaceutical formulation for cytokine administration” (Kanebo Limited, priority 1994, dated 1999)
